Measurements published in patent US9416123B2, “Kinase modulators for the treatment of cancer” (Synovo GmbH, priority 2011, dated 2016).
pIC50: −log10 of the molar value.

Key:
Src = Src (Homo sapiens (Human), UniProt P12931); test: Kinase assay (33P FlashPlate) Src; settings: read-out: IC50 Src (n = 1); Table 1, n = 1
Procedure: (§1) FlashPlates from Perkin Elmer (Boston, Mass., USA) with a 50 μl reaction volume are used. The reaction cocktail was pipetted in 4 steps in the following order: 15 μl of ATP solution (in H2O), 20 μl of assay buffer (see below), 5 μl of test sample in 10% DMSO, 10 μl of enzyme/substrate mixture (in H2O). […] Certain assays also contained 1 mM CaCl2, 4 mM EDTA, 5 μg/ml Phosphatidylserine and 1 μg/ml 1.2-Dioleyl-glycerol. The MYLK2, CAMK1D, CAMK2A, CAMK2B, CAMK2D, CAMK4, CAMKK2, DAPK2 and EEF2K assays additionally contained 1 μg/ml Calmodulin and 0.5 mM CaCl2. The PRKG1 and PRKG2 assays additionally contained 1 μM cGMP. Recombinant Protein Kinases: All protein kinases were expressed in Sf9 insect cells or in E. coli as recombinant GST-fusion proteins or His-tagged proteins. All kinases were produced from human cDNAs, except JAK2, for which the mouse cDNA was used. […] The purity of the protein kinases was examined by SDS-PAGE/coomassie staining. The identity of the protein kinases was checked by mass spectroscopy. Assays were made under license from Chemicon International Inc. for JAK2. […] The reaction was stopped with 50 μl of 2% (v/v) H3PO4, plates were aspirated and washed two times with 200 μl 0.9% (w/v) NaCl. All assays were performed with a BeckmanCoulter Biomek 2000/SL robotic system.

VEGFR-2 = VEGFR-2 (Homo sapiens (Human), UniProt P35968); test: Kinase assay (33P FlashPlate) VEGFR-2; settings: read-out: IC50 VEGFR-2 (n = 1); Table 1, n = 1
Procedure: as §1

B-Raf V600E = B-Raf V600E (Homo sapiens (Human), UniProt P15056, V600E); test: Kinase assay (33P FlashPlate) B-Raf V600E; settings: read-out: IC50 B-Raf V600E (n = 1); Table 1, n = 1
Procedure: as §1

RIPK2 = RIPK2 (Homo sapiens (Human), UniProt O43353); test: Kinase assay (33P FlashPlate) RIPK2; assay type: biochemical; settings: Table 3
Chain of RIPK2 (O43353 whole entry): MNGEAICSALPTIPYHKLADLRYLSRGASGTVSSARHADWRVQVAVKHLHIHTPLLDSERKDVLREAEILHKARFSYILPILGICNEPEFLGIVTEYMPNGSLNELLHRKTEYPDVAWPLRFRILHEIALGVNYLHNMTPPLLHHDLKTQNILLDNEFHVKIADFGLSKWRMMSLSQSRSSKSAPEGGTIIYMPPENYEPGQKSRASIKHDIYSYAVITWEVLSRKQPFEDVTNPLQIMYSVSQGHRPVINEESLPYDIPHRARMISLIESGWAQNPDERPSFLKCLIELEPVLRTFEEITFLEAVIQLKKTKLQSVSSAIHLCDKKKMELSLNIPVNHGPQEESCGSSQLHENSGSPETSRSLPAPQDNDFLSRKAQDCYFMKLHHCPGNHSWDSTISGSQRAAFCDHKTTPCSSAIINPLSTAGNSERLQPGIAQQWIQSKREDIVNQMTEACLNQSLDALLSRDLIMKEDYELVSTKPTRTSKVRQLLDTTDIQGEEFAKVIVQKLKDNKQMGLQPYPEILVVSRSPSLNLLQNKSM

Chain of B-Raf V600E (P15056 whole entry V600E): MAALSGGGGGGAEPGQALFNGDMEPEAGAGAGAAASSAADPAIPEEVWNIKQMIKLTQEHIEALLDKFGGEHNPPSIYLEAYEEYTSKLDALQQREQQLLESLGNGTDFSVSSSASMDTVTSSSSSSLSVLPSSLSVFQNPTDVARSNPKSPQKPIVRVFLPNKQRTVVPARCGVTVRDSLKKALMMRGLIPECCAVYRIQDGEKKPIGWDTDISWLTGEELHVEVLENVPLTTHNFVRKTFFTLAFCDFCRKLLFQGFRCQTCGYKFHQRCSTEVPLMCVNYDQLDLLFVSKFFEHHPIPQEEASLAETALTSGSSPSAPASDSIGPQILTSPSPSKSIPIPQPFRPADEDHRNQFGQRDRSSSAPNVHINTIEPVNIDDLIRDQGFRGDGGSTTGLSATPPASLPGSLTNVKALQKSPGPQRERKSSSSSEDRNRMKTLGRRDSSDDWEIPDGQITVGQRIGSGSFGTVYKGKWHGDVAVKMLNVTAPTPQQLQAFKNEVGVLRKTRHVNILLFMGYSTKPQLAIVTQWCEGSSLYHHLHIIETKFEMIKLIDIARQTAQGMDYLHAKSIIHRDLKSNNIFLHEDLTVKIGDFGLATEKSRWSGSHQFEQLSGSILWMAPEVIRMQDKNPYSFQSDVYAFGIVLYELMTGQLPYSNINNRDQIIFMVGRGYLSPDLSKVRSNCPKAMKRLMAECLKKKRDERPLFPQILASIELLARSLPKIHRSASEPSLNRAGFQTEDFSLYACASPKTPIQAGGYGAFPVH
Chain of Src (P12931 whole entry, looked up): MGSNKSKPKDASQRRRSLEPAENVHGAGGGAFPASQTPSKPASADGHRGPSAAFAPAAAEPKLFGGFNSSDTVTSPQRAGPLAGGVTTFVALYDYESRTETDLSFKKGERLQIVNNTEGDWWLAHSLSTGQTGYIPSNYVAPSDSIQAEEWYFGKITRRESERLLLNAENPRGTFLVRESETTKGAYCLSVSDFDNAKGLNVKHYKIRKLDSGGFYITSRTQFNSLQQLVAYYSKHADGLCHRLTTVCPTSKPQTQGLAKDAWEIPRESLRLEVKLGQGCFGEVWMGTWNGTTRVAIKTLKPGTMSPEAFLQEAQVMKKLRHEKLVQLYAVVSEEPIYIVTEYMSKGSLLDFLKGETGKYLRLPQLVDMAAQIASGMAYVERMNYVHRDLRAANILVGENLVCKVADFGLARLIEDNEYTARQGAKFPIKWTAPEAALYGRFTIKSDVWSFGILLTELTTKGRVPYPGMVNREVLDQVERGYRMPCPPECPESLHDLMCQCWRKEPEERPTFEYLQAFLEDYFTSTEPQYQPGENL
Chain of VEGFR-2 (P35968 20-1356): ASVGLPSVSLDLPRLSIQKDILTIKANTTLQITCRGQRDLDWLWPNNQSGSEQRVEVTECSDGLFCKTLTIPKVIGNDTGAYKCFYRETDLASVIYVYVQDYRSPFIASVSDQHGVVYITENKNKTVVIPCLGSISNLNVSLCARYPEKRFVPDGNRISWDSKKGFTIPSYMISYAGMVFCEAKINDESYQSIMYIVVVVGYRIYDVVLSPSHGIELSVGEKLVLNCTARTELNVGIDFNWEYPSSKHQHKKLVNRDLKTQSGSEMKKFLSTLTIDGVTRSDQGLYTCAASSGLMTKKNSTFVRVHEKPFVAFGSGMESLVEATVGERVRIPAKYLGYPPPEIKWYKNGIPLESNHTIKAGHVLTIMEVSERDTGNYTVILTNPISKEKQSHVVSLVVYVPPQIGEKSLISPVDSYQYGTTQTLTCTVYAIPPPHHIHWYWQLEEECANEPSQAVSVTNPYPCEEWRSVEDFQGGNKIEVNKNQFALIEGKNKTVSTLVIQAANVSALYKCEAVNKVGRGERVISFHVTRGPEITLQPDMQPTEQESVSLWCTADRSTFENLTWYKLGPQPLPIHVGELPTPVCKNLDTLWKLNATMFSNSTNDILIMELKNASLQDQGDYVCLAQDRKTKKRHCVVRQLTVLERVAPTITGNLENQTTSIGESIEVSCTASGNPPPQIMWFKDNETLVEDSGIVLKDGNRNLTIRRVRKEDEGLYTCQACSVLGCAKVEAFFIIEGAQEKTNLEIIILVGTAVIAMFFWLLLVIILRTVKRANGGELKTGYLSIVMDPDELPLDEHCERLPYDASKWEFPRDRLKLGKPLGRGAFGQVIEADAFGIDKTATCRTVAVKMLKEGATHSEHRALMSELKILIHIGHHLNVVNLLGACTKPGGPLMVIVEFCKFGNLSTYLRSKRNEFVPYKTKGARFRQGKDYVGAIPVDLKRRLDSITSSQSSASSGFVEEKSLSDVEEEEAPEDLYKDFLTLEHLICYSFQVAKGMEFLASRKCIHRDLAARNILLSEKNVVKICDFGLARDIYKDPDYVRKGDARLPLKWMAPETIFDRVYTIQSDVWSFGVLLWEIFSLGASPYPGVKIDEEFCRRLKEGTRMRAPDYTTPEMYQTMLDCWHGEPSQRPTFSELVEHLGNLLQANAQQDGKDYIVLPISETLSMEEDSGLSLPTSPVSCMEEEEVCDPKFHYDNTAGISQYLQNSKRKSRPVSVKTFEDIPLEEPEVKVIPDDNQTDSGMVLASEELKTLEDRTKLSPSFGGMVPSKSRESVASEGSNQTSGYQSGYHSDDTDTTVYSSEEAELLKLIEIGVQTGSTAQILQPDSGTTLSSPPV

## COc1ccc(-n2nc(-c3ccncc3)c(-c3ccc(F)cc3)c2N)cc1 [Compound 8]
other
  melting point: 200 °C
Src
  pIC50: 4.64
VEGFR-2
  pIC50: 5.72
B-Raf V600E
  pIC50: 6.07

## Clc1cc(Cl)c(N/N=C/c2ccncc2)c(Cl)c1 [Compound 3a]
Src
  pIC50: 5.70
VEGFR-2
  pIC50: 6.68
B-Raf V600E
  pIC50: 5.60

## NC(=O)c1c(-c2ccncc2)nn(-c2c(Cl)cc(Cl)cc2Cl)c1N [Compound 14, 5-Amino-3-(pyridin-4-yl)-1-(2,4,6-trichlorophenyl)-1H-pyrazole-4-carboxamide]
Src
  pIC50: 5.19
VEGFR-2
  pIC50: 4.51
B-Raf V600E
  pIC50: < 4.00

## CCOC(=O)c1c(-c2ccncc2)nn(-c2c(Cl)cc(Cl)cc2Cl)c1N [Compound 15, Ethyl 5-amino-3-(pyridin-4-yl)-1-(2,4,6-trichlorophenyl)-1H-pyrazole-4-carboxylate]
Src
  pIC50: < 4.00
VEGFR-2
  pIC50: < 4.00
B-Raf V600E
  pIC50: < 4.00

## NC(=O)c1c(-c2ccncc2)nn(-c2ccccc2)c1N [Compound 18, 5-Amino-1-phenyl-3-(pyridine-4-yl)-1H-pyrazole-4-carboxamide]
Src
  pIC50: 4.72
VEGFR-2
  pIC50: 4.32
B-Raf V600E
  pIC50: 4.19

## Nc1c(C(=O)O)c(-c2ccncc2)nn1-c1c(Cl)cc(Cl)cc1Cl [Compound 16, 5-Amino-3-(pyridine-4-yl)-1-(2,4,6-trichlorophenyl)-1H-pyrazole-4-carboxylic acid]
other
  melting point: 208 °C
Src
  pIC50: 4.26
VEGFR-2
  pIC50: 4.37
B-Raf V600E
  pIC50: < 4.00

## N#Cc1ccc(-n2nc(-c3ccncc3)c(-c3ccc(F)cc3)c2N)cc1 [Compound 11, 4-(5-Amino-4-(4-fluorophenyl)-3-(pyridine-4-yl)-1H-pyrazol-1-yl)benzonitrile]
Src
  pIC50: < 4.00
VEGFR-2
  pIC50: 5.89
B-Raf V600E
  pIC50: 5.77

## Nc1cc(-c2ccncc2)nn1-c1c(Cl)cc(Cl)cc1Cl [Compound 19, 3-(Pyridin-4-yl)-1-(2,4,6-trichlorophenyl)-1H-pyrazol-5-amine]
Src
  pIC50: < 4.00
VEGFR-2
  pIC50: 4.06
B-Raf V600E
  pIC50: < 4.00

## Fc1ccc(-c2cn(-c3ccc(C(F)(F)F)cc3)nc2-c2ccncc2)cc1 [Compound 20]
Src
  pIC50: 4.92
VEGFR-2
  pIC50: 4.57
B-Raf V600E
  pIC50: 5.57

## Nc1c(-c2ccc(F)cc2)c(-c2ccncc2)nn1-c1c(Cl)cc(Cl)cc1Cl [Compound 6]
RIPK2
  pIC50: 7.39

## Nc1c(-c2ccc(F)cc2)c(-c2ccncc2)nn1-c1ccccc1 [Compound 5, 4-(4-Fluorophenyl)-1-phenyl-3-(pyridine-4-yl)-1H-pyrazol-5-amine]
Src
  pIC50: 4.28
VEGFR-2
  pIC50: 5.62
B-Raf V600E
  pIC50: 6.05
